The record followed here is US20120115724A1, “METHOD OF CONTROLLING UNDESIRED VEGETATION” (SYNGENTA CROP PROTECTION LLC, priority 2009, published 2012).

Holding throughout (format): in vivo
Experiment [1] deals with Setaria faberi (SETFA). Briefly: Post-emergence biological efficacy (Example 14). Conditions: post-emergence, 1,000 g/ha, after 13 days; for pest or weed control at 1000 g/ha: Setaria faberi, 312 h, read-out: Percentage damage SETFA. As for the experimental part: (§1) Seeds of Alopecurus myosuroides (ALOMY), Setaria faberi (SETFA), Echinochloa crus-galli (ECHCG), Solanum nigrum (SOLNI), Amaranthus retroflexus (AMARE) and Ipomea hederaceae (IPOHE) were sown in standard soil in pots. After cultivation for 8 days under controlled conditions in a glasshouse (at 24/16° C., day/night; 14 hours light; 65% humidity), the plants were sprayed with an aqueous spray solution derived from the formulation of the technical active ingredient in acetone/water (50:50) solution containing 0.5% Tween 20 (polyoxyethylene sorbitan monolaurate, CAS RN 9005-64-5) to give a final dose of 250 or 1000 g/ha of test compound. The test plants were then grown on under controlled conditions in a glasshouse (at 24/16° C., day/night; 14 hours light; 65% humidity) and watered twice daily. After 13 days the test was evaluated (100=total damage to plant; 0=no damage to plant).

For experiment [2], the system named is Solanum nigrum (SOLNI). Briefly: Post-emergence biological efficacy (Example 14). As to conditions: post-emergence, 1,000 g/ha, after 13 days; for pest or weed control at 1000 g/ha: Solanum nigrum, 312 h, read-out: Percentage damage SOLNI. As for the experimental part:
as §1

Experiment [3] has as its system Ipomea hederaceae (IPOHE). As to the kind of experiment: Post-emergence biological efficacy (Example 14). As to conditions: post-emergence, 1,000 g/ha, after 13 days; for pest or weed control at 1000 g/ha: Ipomoea hederacea, 312 h, read-out: Percentage damage IPOHE. As for the experimental part:
as §1

The test system of experiment [4] is Alopecurus myosuroides (ALOMY). Briefly: Post-emergence biological efficacy (Example 14). As to conditions: post-emergence, 1,000 g/ha, after 13 days; for pest or weed control at 1000 g/ha: Alopecurus myosuroides, 312 h, read-out: Percentage damage ALOMY. As for the experimental part:
as §1

In experiment [5] the test system is Amaranthus retroflexus (AMARE). As to the kind of experiment: Post-emergence biological efficacy (Example 14). As to conditions: post-emergence, 1,000 g/ha, after 13 days; for pest or weed control at 1000 g/ha: Amaranthus retroflexus, 312 h, read-out: Percentage damage AMARE. As for the experimental part:
as §1

The test system of experiment [6] is Echinochloa crus-galli (ECHCG). Briefly: Post-emergence biological efficacy (Example 14). Conditions: post-emergence, 1,000 g/ha, after 13 days; for pest or weed control at 1000 g/ha: Echinochloa crus-galli, 312 h, read-out: Percentage damage ECHCG. As for the experimental part:
as §1

The subject of experiment [7] is Setaria faberi (SETFA). Briefly: Pre-emergence biological efficacy (Example 13). As to conditions: pre-emergence, 1,000 g/ha, after 13 days; for pest or weed control at 1000 g/ha: Setaria faberi, 312 h, read-out: Percentage damage SETFA. As for the experimental part:
(§2) Seeds of Alopecurus myosuroides (ALOMY), Setaria faberi (SETFA), Echinochloa crus-galli (ECHCG), Solanum nigrum (SOLNI), Amaranthus retroflexus (AMARE) and Ipomea hederaceae (IPOHE) were sown in standard soil in pots. After cultivation for one day under controlled conditions in a glasshouse (at 24/16° C., day/night; 14 hours light; 65% humidity), the plants were sprayed with an aqueous spray solution derived from the formulation of the technical active ingredient in acetone/water (50:50) solution containing 0.5% Tween 20 (polyoxyethylene sorbitan monolaurate, CAS RN 9005-64-5) to give a final dose of 250 or 1000g/ha of test compound. The test plants were then grown under controlled conditions in the glasshouse (at 24/16° C., day/night; 14 hours light; 65% humidity) and watered twice daily. After 13 days the test was evaluated (100 =total damage to plant; 0 =no damage to plant).

The subject of experiment [8] is Solanum nigrum (SOLNI). As to the kind of experiment: Pre-emergence biological efficacy (Example 13). Conditions: pre-emergence, 1,000 g/ha, after 13 days; for pest or weed control at 1000 g/ha: Solanum nigrum, 312 h, read-out: Percentage damage SOLNI. As for the experimental part:
as §2

The test system of experiment [9] is Ipomea hederaceae (IPOHE). As to the kind of experiment: Pre-emergence biological efficacy (Example 13). As to conditions: pre-emergence, 1,000 g/ha, after 13 days; for pest or weed control at 1000 g/ha: Ipomoea hederacea, 312 h, read-out: Percentage damage IPOHE. How it is done:
as §2

Experiment [10] deals with Alopecurus myosuroides (ALOMY). As to the kind of experiment: Pre-emergence biological efficacy (Example 13). Conditions: pre-emergence, 1,000 g/ha, after 13 days; for pest or weed control at 1000 g/ha: Alopecurus myosuroides, 312 h, read-out: Percentage damage ALOMY. As for the experimental part: as §2
Experiment [11] has as its system Amaranthus retroflexus (AMARE). Briefly: Pre-emergence biological efficacy (Example 13). Conditions: pre-emergence, 1,000 g/ha, after 13 days; for pest or weed control at 1000 g/ha: Amaranthus retroflexus, 312 h, read-out: Percentage damage AMARE. As for the experimental part: as §2
Experiment [12] deals with Echinochloa crus-galli (ECHCG). As to the kind of experiment: Pre-emergence biological efficacy (Example 13). Conditions: pre-emergence, 1,000 g/ha, after 13 days; for pest or weed control at 1000 g/ha: Echinochloa crus-galli, 312 h, read-out: Percentage damage ECHCG. As for the experimental part: as §2

Consider `C=Cc1c(NCc2ccco2)nc(-c2ccc(Cl)c(N(C)C)c2F)nc1C(=O)OC` [Compound 13, 2-(4-Chloro-3-dimethylamino-2-fluorophenyl)-5-ethenyl-4-(furan-2-ylmethylamino)-6-methoxycarbonyl-pyrimi-dine], for which the pest or weed control at 1000 g/ha in the experiment on Setaria faberi (SETFA) [1] came out at 80%; with Solanum nigrum (SOLNI) [2], 100%; in [3], 40%; in [4], 70%; in [5] it was 100%; in experiment [6] it was 80%. The pest or weed control at 1000 g/ha in the experiment with Setaria faberi (SETFA) [7] was 60%; with Solanum nigrum (SOLNI) [8] it was 90%; in experiment [9], 20%; in experiment [10], 70%; in experiment [11], 90%; in experiment [12], 90%.
As to `C=Cc1c(NC2CCC2)nc(-c2ccc(Cl)c(OC)c2F)nc1C(=O)OC` [Compound 24, 2-(4-Chloro-2-fluoro-3-methoxyphenyl)-4-cyclobutylamino-5-ethenyl-6-methoxycarbonyl pyrimidine], the pest or weed control at 1000 g/ha with Setaria faberi (SETFA) [1] worked out at 10%; in the experiment with Solanum nigrum (SOLNI) [2], 90%; in experiment [3], 70%; in experiment [4], 10%; in experiment [5], 100%; in experiment [6], 40%. Further, the pest or weed control at 1000 g/ha in the experiment on Setaria faberi (SETFA) [7] worked out at 0%; in the experiment on Solanum nigrum (SOLNI) [8], 80%; in experiment [9] it was 80%; in experiment [10] it was 10%; in experiment [11], 100%; in [12] it was 50%.
On to `C/C=C/c1c(N)nc(-c2ccc(Cl)c(N(C)C)c2F)nc1C(=O)OC` [Compound 12, (E)-4-Amino-2-(4-chloro-3-dimethylamino-2-fluorophenyl)-6-methoxy-carbonyl-5-(prop-1-enyl)-pyrimidine], for which the pest or weed control at 1000 g/ha in the experiment with Setaria faberi (SETFA) [1] stood at 80%; with Solanum nigrum (SOLNI) [2] it was 80%; in [3], 40%; in experiment [4] it was 80%; in [5], 100%; in [6], 80%. The pest or weed control at 1000 g/ha with Setaria faberi (SETFA) [7] is 80%; in the experiment with Solanum nigrum (SOLNI) [8] it was 80%; in experiment [9] it was 0%; in [10] it was 70%; in [11], 100%; in experiment [12] it was 90%.
As to `C=Cc1c(NCc2ccco2)nc(-c2ccc(Cl)c(OC)c2F)nc1C(=O)OCc1ccccc1` [Compound 47, 2-(4-Chloro-2-fluoro-3-methoxyphenyl)-5-ethenyl-4-(furan-2-ylmethylamino)-6-phenylmethoxy-carbonyl-pyrimidine], the pest or weed control at 1000 g/ha in the experiment with Setaria faberi (SETFA) [1] came out at 80%; with Solanum nigrum (SOLNI) [2], 80%; in [3], 80%; in experiment [4], 60%; in [5], 100%; in [6] it was 80%. Besides, the pest or weed control at 1000 g/ha in the experiment with Setaria faberi (SETFA) [7] is 50%; with Solanum nigrum (SOLNI) [8] it was 80%; in experiment [9], 80%; in [10] it was 30%; in experiment [11], 70%; in experiment [12], 90%.
For the molecule `C=Cc1c(NCc2ccco2)nc(-c2ccc(Cl)c(OC)c2F)nc1C(=O)OCCOCC` [Compound 48, 2-(4-Chloro-2-fluoro-3-methoxyphenyl)-5-ethenyl-6-(2-ethoxy-ethoxy)carbonyl-4-(furan-2-ylmethylamino)-pyrimidine], the pest or weed control at 1000 g/ha was 0% in the experiment with Setaria faberi (SETFA) [1]; 50% in the experiment with Solanum nigrum (SOLNI) [2]; 60% in [3]; 0% in experiment [4]; 40% in experiment [5]; 0% in experiment [6]. For the same molecule, the pest or weed control at 1000 g/ha (in the experiment on Setaria faberi (SETFA) [7]; in the experiment with Solanum nigrum (SOLNI) [8]; in [9]; in experiment [10]; in experiment [11]; in [12]) was 0% in each case.
With `C=Cc1c(N)nc(-c2ccc(Cl)c(N(C)C)c2F)nc1C(=O)OCCCCCCCC` [Compound 41, 4-Amino-2-(4-chloro-3-dimethylamino-2-fluorophenyl)-5-ethenyl-6- ^noctyloxycarbonyl-pyrimidine], the “Percentage damage SETFA” value in the experiment with Setaria faberi (SETFA) [1] is 60%; with Setaria faberi (SETFA) [7], 90%. Besides, the “Percentage damage SOLNI” value is 90% in the experiment on Solanum nigrum (SOLNI) [2] and 80% in the experiment on Solanum nigrum (SOLNI) [8]. The “Percentage damage IPOHE” value in experiment [3] is on record as 80%; in [9] it was 0%. Also, the “Percentage damage ALOMY” value in [4] and in [10] was 70% each time. Also, the “Percentage damage AMARE” value in experiment [5] and in [11] was 100% each time. The “Percentage damage ECHCG” value in experiment [6] is 80%; in experiment [12] it was 100%.
`C=Cc1c(NCc2ccccc2[N+](=O)[O-])nc(-c2ccc(Cl)c(OC)c2F)nc1C(=O)OC` [Compound 15, 2-(4-Chloro-2-fluoro-3-methoxyphenyl)-5-ethenyl-6-methoxycarbonyl-4-(2-nitrophenylmethyl-amino)-pyrimidine]: the pest or weed control at 1000 g/ha with Setaria faberi (SETFA) [1] was 70%; with Solanum nigrum (SOLNI) [2], 90%; in experiment [3], 90%; in [4] it was 70%; in experiment [5], 100%; in experiment [6] it was 90%. Besides, the pest or weed control at 1000 g/ha came to 0% with Setaria faberi (SETFA) [7]; 100% in the experiment on Solanum nigrum (SOLNI) [8]; 100% in [9]; 50% in experiment [10]; 100% in [11]; 70% in [12].
As to `C=Cc1c(NCc2ccco2)nc(-c2ccc(Cl)c(OC)c2F)nc1C(=O)O` [Compound 35, 2-(4-Chloro-2-fluoro-3-methoxyphenyl)-5-ethenyl-4-(furan-2-ylmethylamino)-pyrimidine-6-carboxylic acid], the pest or weed control at 1000 g/ha stood at 80% with Setaria faberi (SETFA) [1]; 90% in the experiment with Solanum nigrum (SOLNI) [2]; 70% in experiment [3]; 70% in experiment [4]; 100% in experiment [5]; 80% in experiment [6]. Further, the pest or weed control at 1000 g/ha in the experiment with Setaria faberi (SETFA) [7] stood at 90%; with Solanum nigrum (SOLNI) [8] it was 100%; in experiment [9] it was 100%; in [10] it was 70%; in experiment [11], 100%; in experiment [12] it was 90%.
